Key:
[1] = target: T1, D(4) dopamine receptor (Homo sapiens) (UniProt P21917); assay: Inhibition of dopamine D4 receptor (unknown origin) at 10 uM by PDSP assay relative to control
T1 sequence (whole entry): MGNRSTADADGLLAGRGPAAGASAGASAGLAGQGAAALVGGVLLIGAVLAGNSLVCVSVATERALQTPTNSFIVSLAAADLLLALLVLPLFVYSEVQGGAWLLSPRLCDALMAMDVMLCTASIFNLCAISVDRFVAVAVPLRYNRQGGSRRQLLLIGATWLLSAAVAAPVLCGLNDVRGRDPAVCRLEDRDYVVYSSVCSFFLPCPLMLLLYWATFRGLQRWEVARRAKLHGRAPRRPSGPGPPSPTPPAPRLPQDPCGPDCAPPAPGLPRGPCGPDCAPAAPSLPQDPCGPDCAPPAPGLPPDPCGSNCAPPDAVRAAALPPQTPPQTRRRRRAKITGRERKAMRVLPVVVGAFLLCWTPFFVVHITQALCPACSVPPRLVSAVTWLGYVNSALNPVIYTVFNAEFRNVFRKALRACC

[2] = target: Sigma non-opioid intracellular receptor 1 (Rattus norvegicus, UniProt Q9R0C9); assay: Displacement of [3H](+)-pentazocine from sigma-1 receptor in rat brain homogenates; format: tissue-based
[3] = target: T2, 5-hydroxytryptamine receptor 2C (Homo sapiens) (UniProt P28335); assay: Inhibition of 5-HT2C receptor (unknown origin) at 10 uM by PDSP assay relative to control
T2 sequence (whole entry): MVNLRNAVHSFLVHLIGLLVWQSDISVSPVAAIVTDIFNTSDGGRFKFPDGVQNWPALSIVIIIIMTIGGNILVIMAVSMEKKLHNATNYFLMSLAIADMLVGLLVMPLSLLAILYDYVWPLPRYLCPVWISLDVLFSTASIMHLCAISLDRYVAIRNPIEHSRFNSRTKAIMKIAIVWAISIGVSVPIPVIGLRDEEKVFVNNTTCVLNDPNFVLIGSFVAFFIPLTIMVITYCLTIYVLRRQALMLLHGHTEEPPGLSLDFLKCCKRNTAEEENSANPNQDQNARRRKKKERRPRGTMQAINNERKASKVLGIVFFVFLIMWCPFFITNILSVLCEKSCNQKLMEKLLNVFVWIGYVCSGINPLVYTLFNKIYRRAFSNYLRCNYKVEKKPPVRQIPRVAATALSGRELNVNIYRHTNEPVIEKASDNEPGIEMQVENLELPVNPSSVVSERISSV

[4] = target: 5-hydroxytryptamine receptor 1B (Homo sapiens, UniProt P28222); assay: Inhibition of 5-HT1B receptor (unknown origin) at 10 uM by PDSP assay relative to control
Histamine H3 receptor = Histamine H3 receptor (Homo sapiens, UniProt Q9Y5N1); assay: Inhibition of histamine H3 receptor (unknown origin) at 10 uM by PDSP assay relative to control
[5] = target: Beta-3 adrenergic receptor (Homo sapiens) (UniProt P13945); assay: Inhibition of adrenergic beta3 receptor (unknown origin) at 10 uM by PDSP assay relative to control
[6] = target: T3, 5-hydroxytryptamine receptor 1A (Homo sapiens) (UniProt P08908); assay: Inhibition of 5-HT1A receptor (unknown origin) at 10 uM by PDSP assay relative to control
T3 sequence (whole entry): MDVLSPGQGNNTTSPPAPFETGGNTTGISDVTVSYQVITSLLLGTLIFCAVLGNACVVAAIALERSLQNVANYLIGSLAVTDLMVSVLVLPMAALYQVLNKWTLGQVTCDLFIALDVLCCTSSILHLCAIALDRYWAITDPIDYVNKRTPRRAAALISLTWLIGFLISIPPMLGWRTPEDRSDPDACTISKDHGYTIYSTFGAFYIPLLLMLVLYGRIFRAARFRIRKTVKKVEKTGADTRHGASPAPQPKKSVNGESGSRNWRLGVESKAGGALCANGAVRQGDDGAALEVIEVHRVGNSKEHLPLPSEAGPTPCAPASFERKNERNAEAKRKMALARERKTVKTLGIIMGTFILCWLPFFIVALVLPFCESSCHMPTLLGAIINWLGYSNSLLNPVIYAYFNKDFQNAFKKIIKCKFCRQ

[7] = target: D(1A) dopamine receptor (Homo sapiens) (UniProt P21728); assay: Inhibition of dopamine D1 receptor (unknown origin) at 10 uM by PDSP assay relative to control
[8] = target: Beta-1 adrenergic receptor (Homo sapiens) (UniProt P08588); assay: Inhibition of adrenergic beta1 receptor (unknown origin) at 10 uM by PDSP assay relative to control
PC-12 = assay: Selectivity ratio of Ki for sigma-1 receptor in rat brain homogenates to Ki for sigma-2 receptor in rat PC12 cells; format: cell-based
[9] = target: T4, Alpha-1D adrenergic receptor (Homo sapiens) (UniProt P25100); assay: Inhibition of adrenergic alpha1D receptor (unknown origin) at 10 uM by PDSP assay relative to control
T4 sequence (whole entry): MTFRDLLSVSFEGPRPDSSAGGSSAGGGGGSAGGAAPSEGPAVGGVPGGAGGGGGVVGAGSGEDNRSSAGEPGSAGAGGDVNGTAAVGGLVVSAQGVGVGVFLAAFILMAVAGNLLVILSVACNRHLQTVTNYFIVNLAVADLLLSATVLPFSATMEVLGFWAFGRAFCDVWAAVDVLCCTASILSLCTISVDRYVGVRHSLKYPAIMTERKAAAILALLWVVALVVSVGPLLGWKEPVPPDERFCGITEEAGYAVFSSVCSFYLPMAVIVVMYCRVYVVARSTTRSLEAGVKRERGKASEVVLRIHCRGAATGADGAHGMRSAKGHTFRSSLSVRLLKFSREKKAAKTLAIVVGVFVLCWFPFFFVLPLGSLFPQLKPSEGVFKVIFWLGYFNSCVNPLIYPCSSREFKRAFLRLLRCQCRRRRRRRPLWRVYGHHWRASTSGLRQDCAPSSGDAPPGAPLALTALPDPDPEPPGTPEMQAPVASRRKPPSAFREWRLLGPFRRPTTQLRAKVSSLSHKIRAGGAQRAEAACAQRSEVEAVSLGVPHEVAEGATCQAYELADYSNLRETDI

[10] = target: 5-hydroxytryptamine receptor 7 (Homo sapiens, UniProt P34969); assay: Inhibition of 5-HT7 receptor (unknown origin) at 10 uM by PDSP assay relative to control
[11] = Displacement of [3H]-DTG from sigma-2 receptor in rat PC12 cells; format: cell-based; conditions: pc-12
[12] = target: 5-hydroxytryptamine receptor 5A (Homo sapiens, UniProt P47898); assay: Inhibition of 5-HT5A receptor (unknown origin) at 10 uM by PDSP assay relative to control
Histamine H4 receptor = Histamine H4 receptor (Homo sapiens, UniProt Q9H3N8); assay: Inhibition of histamine H4 receptor (unknown origin) at 10 uM by PDSP assay relative to control
[13] = target: 5-hydroxytryptamine receptor 6 (Homo sapiens, UniProt P50406); assay: Inhibition of 5-HT6 receptor (unknown origin) at 10 uM by PDSP assay relative to control
Chain of 5-hydroxytryptamine receptor 6 (P50406 whole entry): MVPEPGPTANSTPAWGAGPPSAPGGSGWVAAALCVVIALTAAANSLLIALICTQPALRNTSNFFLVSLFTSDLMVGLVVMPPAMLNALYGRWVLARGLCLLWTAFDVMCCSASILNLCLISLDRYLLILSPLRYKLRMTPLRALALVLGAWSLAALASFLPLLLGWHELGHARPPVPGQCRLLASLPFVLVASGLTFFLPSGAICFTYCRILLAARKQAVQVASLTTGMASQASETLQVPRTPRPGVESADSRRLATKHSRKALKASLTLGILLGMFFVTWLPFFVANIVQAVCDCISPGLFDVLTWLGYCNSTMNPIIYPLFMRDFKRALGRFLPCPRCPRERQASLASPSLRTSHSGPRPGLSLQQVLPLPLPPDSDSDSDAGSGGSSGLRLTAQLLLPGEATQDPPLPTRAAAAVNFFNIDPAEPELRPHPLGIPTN

Chain of D(1A) dopamine receptor (Homo sapiens) (P21728 whole entry): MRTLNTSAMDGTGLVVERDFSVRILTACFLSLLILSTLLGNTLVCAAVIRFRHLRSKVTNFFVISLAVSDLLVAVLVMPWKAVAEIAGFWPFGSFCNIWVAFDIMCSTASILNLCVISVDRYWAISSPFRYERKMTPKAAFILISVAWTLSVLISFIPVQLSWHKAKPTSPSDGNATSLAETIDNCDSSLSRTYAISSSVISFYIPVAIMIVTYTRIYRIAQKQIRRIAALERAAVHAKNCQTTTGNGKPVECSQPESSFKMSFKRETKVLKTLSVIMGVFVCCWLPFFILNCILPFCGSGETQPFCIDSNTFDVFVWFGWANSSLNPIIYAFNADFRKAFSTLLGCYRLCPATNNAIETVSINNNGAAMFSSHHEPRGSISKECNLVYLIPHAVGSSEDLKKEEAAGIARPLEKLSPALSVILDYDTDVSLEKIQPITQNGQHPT
Chain of Beta-1 adrenergic receptor (Homo sapiens) (P08588 whole entry, looked up): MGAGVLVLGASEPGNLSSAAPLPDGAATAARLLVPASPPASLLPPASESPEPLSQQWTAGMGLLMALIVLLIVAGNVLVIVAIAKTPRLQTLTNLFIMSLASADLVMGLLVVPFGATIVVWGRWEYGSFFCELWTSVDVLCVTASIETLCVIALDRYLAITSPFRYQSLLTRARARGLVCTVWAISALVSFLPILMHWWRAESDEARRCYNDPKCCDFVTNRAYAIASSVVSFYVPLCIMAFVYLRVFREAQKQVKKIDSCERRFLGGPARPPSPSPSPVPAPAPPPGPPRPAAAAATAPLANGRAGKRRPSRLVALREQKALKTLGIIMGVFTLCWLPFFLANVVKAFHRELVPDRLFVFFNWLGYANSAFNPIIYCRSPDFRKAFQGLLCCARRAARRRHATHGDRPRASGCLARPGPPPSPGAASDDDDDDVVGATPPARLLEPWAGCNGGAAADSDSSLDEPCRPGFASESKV
Chain of 5-hydroxytryptamine receptor 1B (P28222 whole entry): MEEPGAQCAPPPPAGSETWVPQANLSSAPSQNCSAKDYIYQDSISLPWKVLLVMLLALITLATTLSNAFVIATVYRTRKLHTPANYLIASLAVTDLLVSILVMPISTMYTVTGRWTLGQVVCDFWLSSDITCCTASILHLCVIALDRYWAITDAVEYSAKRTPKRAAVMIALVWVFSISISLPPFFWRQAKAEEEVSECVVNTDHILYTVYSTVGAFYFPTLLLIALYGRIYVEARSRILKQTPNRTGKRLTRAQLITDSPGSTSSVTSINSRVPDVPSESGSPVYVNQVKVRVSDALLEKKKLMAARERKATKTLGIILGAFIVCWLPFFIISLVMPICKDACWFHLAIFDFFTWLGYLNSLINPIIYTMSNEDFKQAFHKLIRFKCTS
Chain of Histamine H3 receptor (Q9Y5N1 whole entry): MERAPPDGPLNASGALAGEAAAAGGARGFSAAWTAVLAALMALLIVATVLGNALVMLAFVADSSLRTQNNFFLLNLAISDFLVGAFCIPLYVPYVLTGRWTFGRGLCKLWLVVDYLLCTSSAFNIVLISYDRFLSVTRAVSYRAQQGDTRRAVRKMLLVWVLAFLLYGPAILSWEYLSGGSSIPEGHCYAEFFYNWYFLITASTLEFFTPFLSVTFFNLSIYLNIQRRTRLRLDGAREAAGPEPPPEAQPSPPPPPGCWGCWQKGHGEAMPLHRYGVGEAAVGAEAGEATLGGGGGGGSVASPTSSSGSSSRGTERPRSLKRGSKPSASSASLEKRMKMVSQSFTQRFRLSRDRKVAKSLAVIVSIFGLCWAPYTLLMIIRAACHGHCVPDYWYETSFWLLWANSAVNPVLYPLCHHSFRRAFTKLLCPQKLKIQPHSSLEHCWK
Chain of 5-hydroxytryptamine receptor 5A (P47898 whole entry): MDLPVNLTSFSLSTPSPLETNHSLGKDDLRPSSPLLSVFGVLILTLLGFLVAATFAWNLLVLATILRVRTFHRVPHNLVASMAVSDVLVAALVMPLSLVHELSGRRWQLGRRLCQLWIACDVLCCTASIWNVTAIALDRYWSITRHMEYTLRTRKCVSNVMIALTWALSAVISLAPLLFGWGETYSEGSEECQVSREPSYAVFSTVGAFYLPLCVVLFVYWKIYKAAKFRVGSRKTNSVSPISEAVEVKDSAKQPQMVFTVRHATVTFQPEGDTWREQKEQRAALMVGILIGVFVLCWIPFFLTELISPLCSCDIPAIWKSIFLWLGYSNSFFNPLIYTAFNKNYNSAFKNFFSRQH
Chain of 5-hydroxytryptamine receptor 7 (P34969 whole entry): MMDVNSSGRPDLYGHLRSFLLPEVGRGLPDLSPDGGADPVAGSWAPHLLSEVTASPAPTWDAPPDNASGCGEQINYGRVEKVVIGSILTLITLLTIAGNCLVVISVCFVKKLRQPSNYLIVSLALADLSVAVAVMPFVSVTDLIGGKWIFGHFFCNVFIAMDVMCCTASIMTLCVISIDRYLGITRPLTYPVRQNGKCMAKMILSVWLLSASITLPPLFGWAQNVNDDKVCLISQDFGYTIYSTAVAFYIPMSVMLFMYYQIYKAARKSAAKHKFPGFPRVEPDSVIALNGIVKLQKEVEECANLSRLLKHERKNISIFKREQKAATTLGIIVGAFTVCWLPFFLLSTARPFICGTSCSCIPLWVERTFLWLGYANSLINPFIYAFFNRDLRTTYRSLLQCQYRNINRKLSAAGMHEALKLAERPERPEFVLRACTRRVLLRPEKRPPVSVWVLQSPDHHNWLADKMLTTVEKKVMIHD
Chain of Sigma non-opioid intracellular receptor 1 (Q9R0C9 whole entry): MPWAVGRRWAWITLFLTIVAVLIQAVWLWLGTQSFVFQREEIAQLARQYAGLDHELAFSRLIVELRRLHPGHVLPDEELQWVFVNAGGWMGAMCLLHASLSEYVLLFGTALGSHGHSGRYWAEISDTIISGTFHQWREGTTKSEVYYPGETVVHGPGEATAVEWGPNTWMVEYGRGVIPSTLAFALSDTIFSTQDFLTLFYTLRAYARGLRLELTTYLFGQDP
Chain of Beta-3 adrenergic receptor (Homo sapiens) (P13945 whole entry, looked up): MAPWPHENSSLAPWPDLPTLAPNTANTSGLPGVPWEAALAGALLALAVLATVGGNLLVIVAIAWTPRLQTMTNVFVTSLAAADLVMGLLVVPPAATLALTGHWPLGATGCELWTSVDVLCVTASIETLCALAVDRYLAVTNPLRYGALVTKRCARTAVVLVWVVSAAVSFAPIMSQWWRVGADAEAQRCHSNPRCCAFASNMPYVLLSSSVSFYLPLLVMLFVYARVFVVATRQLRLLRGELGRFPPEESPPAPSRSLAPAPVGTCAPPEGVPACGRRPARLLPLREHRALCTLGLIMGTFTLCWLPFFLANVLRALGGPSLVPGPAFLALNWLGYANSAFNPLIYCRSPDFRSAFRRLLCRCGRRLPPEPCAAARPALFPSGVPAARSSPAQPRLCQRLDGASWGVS

inhibition [1] [%] | Ki [2] [nM] | inhibition [3] [%] | inhibition [4] [%] | inhibition (Histamine H3 receptor) [%] | inhibition [5] [%] | inhibition [6] [%] | inhibition [7] [%] | inhibition [8] [%] | inhibition [9] [%] | inhibition [10] [%] | inhibition [12] [%] | inhibition (Histamine H4 receptor) [%] | inhibition [13] [%] | SMILES | Ratio Ki (PC-12) | Ki [11] [nM]
< 50 | 94 | < 50 | < 50 | < 50 | < 50 | < 50 | < 50 | < 50 | < 50 | < 50 | < 50 | < 50 |  | COc1ccc(CN[C@H]2C3C4CC5C6C4CC3C6C52)cc1OC (some centres not stated) | 3.8 | 25
< 50 | 133 | < 50 | < 50 |  | < 50 | < 50 | < 50 | < 50 | < 50 | < 50 | < 50 | < 50 | < 50 | CN(CCCc1cccc(F)c1)[C@H]1C2C3CC4C2C(=O)C2C4C3C21 (some centres not stated) | 4.4 | 30
 | 21.5 | < 50 | < 50 | < 50 | < 50 | < 50 | < 50 | < 50 | < 50 | < 50 | < 50 |  |  | c1ccc(CCN[C@H]2C3C4CC5C6C4CC3C6C52)nc1 (some centres not stated) | 2.5 | 8.6
< 50 | 17 | < 50 | < 50 | < 50 | < 50 | < 50 | < 50 | < 50 | < 50 | < 50 |  | < 50 | < 50 | c1cc2c(cc1CN[C@H]1C3C4CC5C6C4CC3C6C51)OCO2 (some centres not stated) | 1.1 | 15
< 50 | 303 | < 50 | < 50 | < 50 | < 50 |  | < 50 | < 50 | < 50 | < 50 | < 50 | < 50 | < 50 | CN(Cc1cccc(F)c1)[C@H]1C2C3CC4C2C(=O)C2C4C3C21 (some centres not stated) | 1.8 | 168
< 50 | 3 | < 50 | < 50 | < 50 | < 50 | < 50 | < 50 | < 50 | < 50 | < 50 |  | < 50 | < 50 | C1C2C3CC4C2C2C1C3[C@H](NCC13C5C6C7C5C1C7C63)C42 (some centres not stated) | 1.5 | 2

SMILES | inhibition [1] [%] | Ki [2] [nM] | inhibition [3] [%] | inhibition [4] [%] | inhibition (Histamine H3 receptor) [%] | inhibition [5] [%] | inhibition [6] [%] | inhibition [7] [%] | inhibition [8] [%] | inhibition [9] [%] | inhibition [10] [%] | inhibition [12] [%] | inhibition (Histamine H4 receptor) [%] | inhibition [13] [%] | Ratio Ki (PC-12) | Ki [11] [nM]
CN(CCc1ccccc1)[C@H]1C2C3CC4C5C3CC2C5C41 (some centres not stated) | < 50 | 773 | < 50 | < 50 | < 50 | < 50 | < 50 | < 50 | < 50 | < 50 |  | < 50 | < 50 | < 50 | 48.3 | 16
c1ccc(CCN[C@H]2C3C4CC5C6C4CC3C6C52)cc1 (some centres not stated) |  | 49 | < 50 |  | < 50 | < 50 | < 50 | < 50 | < 50 | < 50 | < 50 | < 50 | < 50 | < 50 | 5.3 | 9.3

— ChEMBL document CHEMBL2429832, “N-substituted 8-aminopentacyclo[5.4.0.0(2,6).0(3,10).0(5,9)]undecanes as σ receptor ligands with potential neuroprotective effects” (Bioorg Med Chem, 2013)
